Experimental findings from the supplement of paper PMC11208160 are described below.
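Note: IS621 bridge recombinase in Escherichia coli cells against a fixed T5 target plasmid.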

The nature of this data set: recombinant UMI read abundance after kanamycin selection (control-corrected) (log10(CPM+1)); higher = more efficient recombination; extreme values may be limits of the assay; sequences stand for … in AGTGCAGAGAAAATCGGCCAGTTTTCTCTGCCTGCAGTCCGCATGCCGTGGGACCCCTTGGGTTCTAACCTGTTGCCTAGATTTATGCAGCGGACTGCCTTTCTCCCAAAGTGATAAACCGG…AGGTTGGTTTCACT; site = the 11-nt donor. An outline of the steps: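 Reported values are log10(CPM+1) from a pooled Escherichia coli screen of donor and donor-binding-loop pairs for the IS621 bridge recombinase. Selection used IPTG (0.07 mM) plus kanamycin, against unselected plating, each in two replicates. Recombinant UMIs were amplified across the donor–target junction, sequenced, converted to CPM, averaged over replicates and scaled by control-derived factors.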
With “CTACTATCATGGACCGGTTTTCCCGGTAATCCGTATTTGGA (site CTACTAGCTTC)”, the “recombinant UMI read abundance (log10)” value is 0.0148.
In the case of “CTACTATCATGGACCGGTTTTCCCGGTAATCCGTATTTGGA (site CTACTATCTTC)” it was 2.71; in that of “CTAGAATCATGGACCGGTTTTCCCGGTAATCCGTATTTGTC (site CTAGAATCTGA)”, 2.71.
In the case of “CTAGAATCATGGACCGGTTTTCCCGGTAATCCGTATTTGTC (site CTAGTATCTGT)” it was 0.307.
With “CTAGACTCATGGACCGGTTTTCCCGGTAATCCGTATTTGAC (site CTAGACTCTGT)” the figure was 3.29; with “CTAGACTCATGGACCGGTTTTCCCGGTAATCCGTATTTGAC (site CTAGTATCTGT)”, 0.
Consider “CTAGACTCATGGACCGGTTTTCCCGGTAATCCGTATTTGCT (site CTAGACTCTAG)”, for which the “recombinant UMI read abundance (log10)” value amounted to 3.32.
In the case of “CTAGAGACATGGACCGGTTTTCCCGGTAATCCGTATTTGTC (site CTAGAGACTGA)” it was 2.28; in that of “CTAGCATCATGGACCGGTTTTCCCGGTAATCCGTATTTGAC (site CTAGAATCTGT)”, 0.337.
In the case of “CTAGCATCATGGACCGGTTTTCCCGGTAATCCGTATTTGAC (site CTAGCATCTGT)” it was 3.04.
For “CTAGCATCATGGACCGGTTTTCCCGGTAATCCGTATTTGAC (site CTAGGATCTGT)”, the “recombinant UMI read abundance (log10)” value is 0.773.
In the case of “CTAGCATCATGGACCGGTTTTCCCGGTAATCCGTATTTGAC (site CTAGTATCTGT)” it was 2.13.
With “CTAGCGACATGGACCGGTTTTCCCGGTAATCCGTATTTGCC (site CTAGCGACTGG)”, the “recombinant UMI read abundance (log10)” value came to 3.09.
In the case of “CTAGCTTCATGGACCGGTTTTCCCGGTAATCCGTATTTGAC (site CTAGCTTCTGT)”, the “recombinant UMI read abundance (log10)” value is 2.18.
With “CTAGCTTCATGGACCGGTTTTCCCGGTAATCCGTATTTGAC (site CTAGTATCTGT)” the figure was 0; with “CTAGGACCATGGACCGGTTTTCCCGGTAATCCGTATTTGAC (site CTAGGACCTGT)”, 0; with “CTAGGACCATGGACCGGTTTTCCCGGTAATCCGTATTTGAC (site CTAGTATCTGT)”, 0.00955.
Regarding “CTAGGATCATGGACCGGTTTTCCCGGTAATCCGTATTTGAT (site CTAGGATCTAT)”, the “recombinant UMI read abundance (log10)” value is 1.95.
Regarding “CTAGGATCATGGACCGGTTTTCCCGGTAATCCGTATTTGAT (site CTAGTATCTGT)”, the “recombinant UMI read abundance (log10)” value is 0.00727.
With “CTAGGATCATGGACCGGTTTTCCCGGTAATCCGTATTTGGC (site CTAGGATCTGC)” the figure was 2.55; with “CTAGGATCATGGACCGGTTTTCCCGGTAATCCGTATTTGGC (site CTAGTATCTGT)”, 0.606.
With “CTAGGGTCATGGACCGGTTTTCCCGGTAATCCGTATTTGAC (site CTAGGGTCTGT)” the figure was 1.41; with “CTAGGGTCATGGACCGGTTTTCCCGGTAATCCGTATTTGAC (site CTAGTATCTGT)”, 1.43; with “CTAGGTTCATGGACCGGTTTTCCCGGTAATCCGTATTTGCG (site CTAGGTTCTCG)”, 2.47.
In the case of “CTAGTAGCATGGACCGGTTTTCCCGGTAATCCGTATTTGAA (site CTAGTAGCTTT)”, the “recombinant UMI read abundance (log10)” value came to 2.15.
In the case of “CTAGTAGCATGGACCGGTTTTCCCGGTAATCCGTATTTGAA (site CTAGTATCTGT)” it was 0; in that of “CTAGTATCATGGACCGGTTTTCCCGGTAATCCGTATTTGAC (site ACAGTATCTGT)”, 0.654; in that of “CTAGTATCATGGACCGGTTTTCCCGGTAATCCGTATTTGAC (site ATACTATCTGT)”, 0.00668.
With “CTAGTATCATGGACCGGTTTTCCCGGTAATCCGTATTTGAC (site ATAGCATCTGT)” the figure was 0.
With “CTAGTATCATGGACCGGTTTTCCCGGTAATCCGTATTTGAC (site ATAGTAGCTGT)” the figure was 0.00849; with “CTAGTATCATGGACCGGTTTTCCCGGTAATCCGTATTTGAC (site ATAGTATCTGG)”, 0.298.
Turning to “CTAGTATCATGGACCGGTTTTCCCGGTAATCCGTATTTGAC (site ATAGTATCTGT)”, the “recombinant UMI read abundance (log10)” value was 0.432.
With “CTAGTATCATGGACCGGTTTTCCCGGTAATCCGTATTTGAC (site ATAGTATCTTT)” the figure was 0.00657.
In the case of “CTAGTATCATGGACCGGTTTTCCCGGTAATCCGTATTTGAC (site ATAGTTTCTGT)” it was 0.
